From ChEMBL document CHEMBL1142723, “Discovery of a potent, selective, and efficacious class of reversible alpha-ketoheterocycle inhibitors of fatty acid amide hydrolase effective as analgesics” (J Med Chem, 2005)
pIC50, pKi: −log10 of the molar value.

Legend:
[1] = biological target: T1, Fatty-acid amide hydrolase 1 (Rattus norvegicus, UniProt P97612); experiment: Inhibitory constant determined against recombinant Fatty-acid amide hydrolase from rat expressed in Escherichia coli
T1 sequence (P97612 whole entry): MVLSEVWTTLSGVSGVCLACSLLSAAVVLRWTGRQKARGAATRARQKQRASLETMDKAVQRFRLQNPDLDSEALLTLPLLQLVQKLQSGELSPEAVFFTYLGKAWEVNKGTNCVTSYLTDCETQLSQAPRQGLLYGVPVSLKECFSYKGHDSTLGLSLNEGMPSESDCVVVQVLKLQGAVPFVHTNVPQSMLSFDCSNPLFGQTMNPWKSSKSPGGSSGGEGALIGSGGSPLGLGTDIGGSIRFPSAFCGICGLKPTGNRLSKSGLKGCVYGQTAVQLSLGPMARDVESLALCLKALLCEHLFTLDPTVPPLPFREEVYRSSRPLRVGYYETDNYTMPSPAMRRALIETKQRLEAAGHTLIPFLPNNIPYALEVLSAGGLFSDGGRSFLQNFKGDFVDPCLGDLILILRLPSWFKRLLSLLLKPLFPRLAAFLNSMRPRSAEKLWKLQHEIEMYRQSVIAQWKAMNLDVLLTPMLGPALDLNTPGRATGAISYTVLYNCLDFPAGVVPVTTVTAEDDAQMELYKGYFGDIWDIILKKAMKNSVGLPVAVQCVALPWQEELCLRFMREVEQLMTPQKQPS

[2] = biological target: T2, Fatty-acid amide hydrolase 1 (Homo sapiens, UniProt O00519); experiment: Inhibitory concentration against Fatty-acid amide hydrolase
T2 sequence (O00519 whole entry): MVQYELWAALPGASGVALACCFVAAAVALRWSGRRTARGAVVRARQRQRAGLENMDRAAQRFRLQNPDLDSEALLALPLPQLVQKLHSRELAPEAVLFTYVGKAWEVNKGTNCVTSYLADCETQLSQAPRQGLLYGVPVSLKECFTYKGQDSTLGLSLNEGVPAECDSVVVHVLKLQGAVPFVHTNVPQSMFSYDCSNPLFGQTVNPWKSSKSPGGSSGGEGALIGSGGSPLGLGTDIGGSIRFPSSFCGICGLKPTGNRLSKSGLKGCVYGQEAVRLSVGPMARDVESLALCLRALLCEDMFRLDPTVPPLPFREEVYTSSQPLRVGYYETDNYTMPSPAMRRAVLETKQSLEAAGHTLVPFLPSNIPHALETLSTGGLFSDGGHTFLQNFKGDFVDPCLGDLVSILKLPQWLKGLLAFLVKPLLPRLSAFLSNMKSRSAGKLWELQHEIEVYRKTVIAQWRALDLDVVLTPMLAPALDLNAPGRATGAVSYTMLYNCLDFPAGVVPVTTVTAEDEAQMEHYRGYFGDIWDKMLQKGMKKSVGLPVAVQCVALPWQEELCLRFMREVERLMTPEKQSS

[3] = Inhibitory concentration against KIAA1363 hydrolase
Liver carboxylesterase 1 = biological target: T3, Liver carboxylesterase 1 (Homo sapiens, UniProt P23141); experiment: Inhibitory concentration against Triacylglycerol hydrolase
T3 sequence (P23141 whole entry): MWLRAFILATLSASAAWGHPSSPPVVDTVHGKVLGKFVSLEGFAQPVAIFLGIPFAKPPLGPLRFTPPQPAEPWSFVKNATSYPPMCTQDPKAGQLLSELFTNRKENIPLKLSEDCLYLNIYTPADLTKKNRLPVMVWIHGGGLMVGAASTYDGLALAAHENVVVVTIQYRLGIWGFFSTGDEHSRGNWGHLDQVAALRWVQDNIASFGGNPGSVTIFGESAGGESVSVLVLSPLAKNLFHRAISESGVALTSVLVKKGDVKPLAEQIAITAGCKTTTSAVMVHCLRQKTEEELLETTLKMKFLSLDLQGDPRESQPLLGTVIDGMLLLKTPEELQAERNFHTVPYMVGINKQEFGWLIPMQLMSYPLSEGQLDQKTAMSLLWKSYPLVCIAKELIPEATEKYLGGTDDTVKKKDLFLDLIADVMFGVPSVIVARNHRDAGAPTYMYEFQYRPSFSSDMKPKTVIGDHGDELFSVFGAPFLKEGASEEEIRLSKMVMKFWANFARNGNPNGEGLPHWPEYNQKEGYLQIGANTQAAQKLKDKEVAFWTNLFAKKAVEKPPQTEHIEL

[4] = biological target: T2, Fatty-acid amide hydrolase 1; experiment: Inhibitory constant determined against recombinant Fatty-acid amide hydrolase from human expressed in COS-7 cells; type: cell-based

pKi [1] | SMILES | also measured
6.21 | CCCCCCCC/C=C\CCCCCCCC(=O)c1ncc(-c2ccoc2)o1 | –
8.00 | CCCCCCCCC#CCCCCCCCC(=O)c1ncc(-c2ccccn2)o1 | pIC50 [2]: 7.70; pIC50 [3]: < 4.00; pIC50 (Liver carboxylesterase 1): 4.52
7.85 | CCCCCCCC/C=C\CCCCCCCC(=O)c1ncc(-c2cccnn2)o1 | –
7.31 | CCCCCCCC(=O)c1ncc(-c2ccccn2)o1 | –
5.89 | C#CCCCCC(=O)c1ncc(-c2ccccn2)o1 | –
7.39 | CCCCCCCC/C=C\CCCCCCCC(=O)c1nc(-c2cccnc2)co1 | –
7.33 | CCCCCCCC/C=C\CCCCCCCC(=O)c1ncc(-c2nccn2C)o1 | –
4.63 | CCCCCCCC/C=C\CCCCCCCCc1ncc(-c2ccccn2)o1 | –
7.25 | CCCCCCCC/C=C\CCCCCCCC(=O)c1ncc(-c2ccncc2)o1 | –
< 4.00 | CCCCCCCC/C=C\CCCCCCCC(=O)c1nc(-c2ccccc2)c(-c2ccccc2)o1 | –
< 4.00 | CC(=O)c1ncc(-c2ccccn2)o1 | –
6.70 | C[Si](C)(C)C#CCCCCC(=O)c1ncc(-c2ccccn2)o1 | –
7.11 | CCCCCCCC/C=C\CCCCCCCC(=O)c1nc(-c2ccncc2)co1 | –
4.97 | CCCCCCCC/C=C\CCCCCCCC(O)c1ncc(-c2ccccn2)o1 (centres undefined) | –
5.23 | OC(CCCCCCc1ccccc1)c1ncc(-c2ncccn2)o1 (centres undefined) | –
7.80 | CCCCCCCC/C=C\CCCCCCCC(=O)c1ncc(-c2nccs2)o1 | –
5.37 | OC(CCCCCCc1ccccc1)c1ncc(-c2cccnn2)o1 (centres undefined) | –
8.12 | O=C(CCCCCCCc1ccccc1)c1ncc(-c2ccccn2)o1 | –
8.66 | CCCCCCCCCCCC(=O)c1ncc(-c2ccccn2)o1 | –
8.48 | CCCCCCCCCCC(=O)c1ncc(-c2ccccn2)o1 | –
4.70 | c1ccc(CCCCCCCc2ncc(-c3ccccn3)o2)cc1 | –
4.96 | CCCC(=O)c1ncc(-c2ccccn2)o1 | –
7.21 | CCCCCCCC/C=C\CCCCCCCC(=O)c1ncc(-c2cccnc2)o1 | –
6.92 | O=C(CCCc1ccccc1)c1ncc(-c2ccccn2)o1 | –
6.49 | CCCCCCCC/C=C\CCCCCCCC(=O)c1ncc(-c2ccccc2)o1 | –

The remaining lines, values behind:

SMILES | pKi [1] | also measured
CCCCCCCC/C=C\CCCCCCCC(=O)c1nc(C)c(C)o1 | 5.42 | –
CCCCCCCC/C=C\CCCCCCCC(=O)c1nc(-c2ncccn2)co1 | 7.80 | –
CCCCCCCCCCCCCCCCCC(=O)c1ncc(-c2ccccn2)o1 | 7.23 | –
CCCCC(=O)c1ncc(-c2ccccn2)o1 | 5.52 | –
O=C(CCCCCCCCCCc1ccccc1)c1ncc(-c2ccccn2)o1 | 7.66 | –
CCCCCCCCC#CCCCCCCCC(=O)c1nc2ncccc2o1 | 9.85 | pIC50 [2]: 8.70; pIC50 [3]: 4.70; pIC50 (Liver carboxylesterase 1): 6.30
CCCCCCCCCCCCCCCC(=O)c1ncc(-c2ccccn2)o1 | 7.68 | –
CCCCCCCCCCCCCC(=O)c1ncc(-c2ccccn2)o1 | 7.89 | –
O=C(CCCCCCc1ccccc1)c1ncc(-c2cncnc2)o1 | 7.66 | –
CCCCCCCC/C=C\CCCCCCCC(=O)c1ncc(-c2ncco2)o1 | 7.92 | –
O=C(CCCCCc1ccccc1)c1nc2ncccc2o1 | 9.70 | pIC50 [3]: 5.00
CCCCCCCCCC(=O)c1ncc(-c2ccccn2)o1 | 8.05 | –
O=C(CCCCCCc1ccccc1)c1ncc(-c2ncco2)o1 | 8.34 | –
O=C(CCCCCCCCCc1ccccc1)c1ncc(-c2ccccn2)o1 | 8.00 | –
C#CCCCCCCCC(=O)c1ncc(-c2ccccn2)o1 | 7.64 | –
O=C(CCCCCCCCc1ccccc1)c1ncc(-c2ccccn2)o1 | 8.11 | –
CCCCCCCC/C=C\CCCCCCCC(=O)c1nc(-c2ccncn2)co1 | 7.80 | –
O=C(CCCC#Cc1ccccc1)c1ncc(-c2ccccn2)o1 | 7.68 | –
CCCCCCCC/C=C\CCCCCCCC(=O)c1nc(-c2ccccc2)co1 | 6.31 | –

SMILES | pKi [1] | also measured
OC(CCCCCCc1ccccc1)c1ncc(-c2ccccn2)o1 (centres undefined) | 5.48 | –
O=C(CCCCCCc1ccccc1)c1ncc(-c2ccccn2)o1 | – | pIC50 [3]: < 4.00
CCC(=O)c1ncc(-c2ccccn2)o1 | 4.32 | –
CCCCCCCC/C=C\CCCCCCCC(=O)c1ncc(-c2cccn2C)o1 | 5.07 | –
O=C(CCc1ccccc1)c1ncc(-c2ccccn2)o1 | 6.70 | –
O=C(CCCCCCc1ccccc1)c1ncc(-c2nccs2)o1 | 8.24 | –
CCCCCCCCC(=O)c1ncc(-c2ccccn2)o1 | 7.82 | –
O=C(CCCCCCc1ccccc1)c1ncc(-c2cnccn2)o1 | 8.28 | –
O=C(CCCCCCc1ccccc1)c1ncc(-c2ccncn2)o1 | 8.64 | –
CCCCCCCC/C=C\CCCCCCCC(=O)c1ncc(-c2ccsc2)o1 | 4.88 | –
CCCCCCC(=O)c1ncc(-c2ccccn2)o1 | 6.77 | –
CCCCCC(=O)c1ncc(-c2ccccn2)o1 | 6.03 | –
CCCCCCCC/C=C\CCCCCCCC(=O)c1ncc(-c2cccs2)o1 | 6.05 | –
CCCCCCCC/C=C\CCCCCCCC(=O)c1nc2ccccc2o1 | 6.43 | pIC50 [3]: < 4.00
O=C(Cc1ccccc1)C(F)(F)F | – | pIC50 [2]: < 4.00; pIC50 [3]: 5.00; pIC50 (Liver carboxylesterase 1): 8.00
O=C(c1ccccc1)C(F)(F)F | – | pIC50 [2]: < 4.00; pIC50 [3]: 5.00; pIC50 (Liver carboxylesterase 1): 8.40
CCCCCCCC/C=C\CCCCCCCC(=O)c1nc2ncccc2o1 | 8.64 | pIC50 [3]: 4.22
O=C(Cc1ccccc1)c1ncc(-c2ccccn2)o1 | 4.77 | –
CCCCCCCC/C=C\CCCCCCCC(=O)c1ncc(-c2cnccn2)o1 | 7.74 | –

SMILES | pKi [1] | also measured
CCCCCCCC/C=C\CCCCCCCC(=O)c1nc(-c2ccccn2)co1 | 7.51 | –
O=C(CCCCCc1ccccc1)c1nc2ccccc2o1 | – | pIC50 [3]: < 4.00
O=C(CCCCCc1ccccc1)c1ncc(-c2ccccn2)o1 | 7.96 | –
O=C(CCCCCCc1ccccc1)c1ncc(-c2cccnn2)o1 | 8.25 | –
O=C(CCCCC#Cc1ccccc1)c1ncc(-c2ccccn2)o1 | 7.70 | –
O=C(CCCCCCc1ccccc1)c1nc2ncccc2o1 | 9.55 | pIC50 [3]: 4.70
O=C(CCCCc1ccccc1)c1ncc(-c2ccccn2)o1 | 7.48 | –
O=C(CCCCCCc1ccccc1)c1ncc(-c2ncccn2)o1 | 8.34 | –
CCCCCCCC/C=C\CCCCCCCC(=O)c1ncco1 | – | pKi [4]: 7.35; pIC50 [3]: < 4.00
O=C(CCCCCc1ccccc1)C(F)(F)F | – | pIC50 [3]: 6.10
CCCCCCCC/C=C\CCCCCCCC(=O)C(F)(F)F | 7.10 | pIC50 [2]: 5.35; pIC50 [3]: 5.96; pIC50 (Liver carboxylesterase 1): 5.32
CCCCCCCC/C=C\CCCCCCCC(=O)c1ncc(-c2ccccn2)o1 | – | pIC50 [2]: 6.82; pKi [4]: 8.00; pIC50 [3]: < 4.00; pIC50 (Liver carboxylesterase 1): < 4.00
C=CCCCCCCCC(=O)c1ncc(-c2ccccn2)o1 | 7.96 | –
CCCCCCCCCCCCCCCCCC(=O)C(F)(F)F | – | pIC50 [3]: 5.18
CCCCCCCCCC(=O)C(F)(F)F | – | pIC50 [3]: 6.40
CCCCCCCCCCCC(=O)C(F)(F)F | – | pIC50 [3]: 6.30; pIC50 (Liver carboxylesterase 1): 7.22
O=C(CCCCCCc1ccccc1)C(F)(F)F | – | pIC50 [3]: 6.70
O=C(CCCCCCCc1ccccc1)C(F)(F)F | – | pIC50 [3]: 6.70
CCCCCCCC(=O)C(F)(F)F | – | pIC50 [3]: 5.82
